A word on the IC50: it is the concentration that inhibits the measured activity by half.

Test [1] addresses Recombinant human FGFR1 (Homo sapiens, UniProt P11362). Description: Transcreener Kinase Assay of FGFR1. The conditions noted are these: read-out: FGFR1 (FP) IC50. It is filed as biochemical. On the procedure:
(§1) • 1. […] Prepare Solution • Test compounds were solved in DMSO and were diluted with assay buffer to 5 folds of final concentration keeping the DMSO concentration at 5%. Further dilution are needed to make final concentrations are at 1, 0.33, 0.11, 0.037, 0.012, 0.004, 0.0014, 0.0005 μM; (the final concentration of DMSO is 1%). • Enzyme/Substrate stock Preparation: Recombinant human FGFR1 and Poly E4Y are both diluted in assay buffer.
• 3. Enzymatic Reaction • In a 96-well plate, add 5 μL of diluted solution of test compound or control solution. (positive control: 5 μL of 5% DMSO; negative control: 5 μL of 500 mM EDTA) into desired wells respectively; • Add 10 μL of Enzyme/Substrate stock into each well; • Add 10 μL of ATP Diluents to initiate the enzyme reaction and vortex the plate immediately on a plate shaker; • For the wells to make standard curve, add 5 μL of 5% DMSO, 10 μL of assay buffer and 10 μL of ATP standard curve stock. • Incubate the plate for 45 min at 28° C. on a plate shaker in a low speed. • 4. […] Excitation wavelength: 610 nm, Emission wavelength: 670 nm. • 5. Data Analysis
(§2) [formula] Note: • [ADP] in Compound well represents the ADP concentration in test compound well. • [ADP] in Positive control well represents the ADP concentration in 5% DMSO well • Conversion of mP value to ADP concentration is calculated based on the formula which determined by standard curve. And mP value is measured by following the instruction provided by BellBrook Labs. (www.bellbrooklabs.com). • 6. IC50: determined with add-in software for Microsoft Excel, XLfit™ (version 2.0) from ID Business Solutions (Guildford, UK).

Test [2] concerns the target Recombinant human FGFR2 (Homo sapiens, UniProt P21802). Briefly: Transcreener Kinase Assay of FGFR2. It is filed as biochemical. The conditions noted are these: read-out: FGFR2 (FP) IC50. The method, then:
Example 24: Transcreener Kinase Assay of FGFR2
as §1, with “FGFR2” for “FGFR1”, “buffer. The final concentration is 0.3 ng/μL for FGFR2 and 62.5 ng/μL for Poly E4Y. The mixture is being kept in ice before use; • Prepare ATP Diluents, 10 mM ATP is diluted in assay buffer, the final concentration is 25 μM; • Prepare ADP Diluents: diluted ADP (500 μM) in assay buffer, the final concentration is 25 μM; • Prepare ATP standard curve stock as following:” for “buffer.”
• 3. Enzymatic Reaction • In a 96-well plate, add 5 μL of deluted solution of test compound or control solution. (positive control: 5 μL of 5% DMSO; negative control: 5 μL of 500 mM EDTA) into desired wells respectively; • Add 10 μL of Enzyme/Substrate stock into each well; • Add 10 μL of ATP Diluents to initiate the enzyme reaction and vortex the plate immediately on a plate shaker; • For the wells to make standard curve, add 5 μL of 5% DMSO, 10 μL of assay buffer and 10 μL of ATP standard curve stock. • Incubate the plate for 45 min at 28° C. on a plate shaker in a low speed. • 4. Stoping Reaction and Detecting ADP • Detection Mix Preparation: The mixture is made by dilution with MilliQ water; as following: ADP Alexa633 tracer (1:100), ADP antibody (1:158), and stop & detect buffer (1:10); • Tracer Only control Preparation: The mixture is made by dilution with MilliQ water; as following: ADP Alexa633 tracer (1:100), and stop & detect buffer (1: 10) • No Tracer control Preparation: stop & detect buffer is diluted with MilliQ water; by 10 fold. • Add 25 μL of detection mix, Tracer Only control and No Tracer control into corresponding wells, respectively; • Incubate at 28° C. for 1 h, on a plate shaker in a low speed; • Measure florescence polarization (mP) on TECAN F500. Excitation wavelength: 610 nm, Emission wavelength: 670 nm. • 5. Data Analysis
as §2

The target in test [3] is FGFR3 kinase (Homo sapiens, UniProt P22607). Description: Z-Lyte Kinase Assay of FGFR3. The class given is biochemical. The method, then: Example 25: Z-Lyte Kinase Assay of FGFR3
• 1. Materials and Reagents:
• 2. Reaction Steps: Plate Map
• 3. […] The final concentrations are 1, 0.33, 0.11, 0.037, 0.012, 0.004, 0.0014, 0.00046 μM, and the final concentration of DMSO is 2%. • 3) Kinase/Peptide Mixture (P/K solution): Prepare Kinase/Peptide Mixture by diluting the kinase to 0.7 μg/ml and the Z-LYTE™ Tyr 4 peptide to 4 μM in 1.33× Kinase Buffer. Mix gently by pipetting. • 4) Phospho-peptide Solution (PP solution): Add 0.4 μl of Z-LYTE™ Tyr 4 Phospho-peptide to 99.6 μl of 1.33× Kinase Buffer. • 5) ATP Solution: Prepare ATP Solution by diluting the 10 mM of ATP in 1.33× Kinase Buffer to 300 uM. • 6) Development Solution: Dilute Development Reagent B with Development Buffer as 1:128. • 4. […] Shake the plate for 30 Sec and centrifuge (1500 rpm, 1 min). • Seal the plate to protect from the light and incubate the plate for 1 hour at RT (25-30° C.). • 2) Development reaction • Add 5 μl of the Development solution to all wells. • Shake the plate for 30 Sec and centrifuge (1500 rpm, 1 min). • Seal the plate to protect from the light and incubate the plate for 1 hour at RT (25-30° C.). • 3) Stop and Read • Add 5 μl of the Stop reagent to all wells. • Shake the plate for 30 Sec and centrifuge (1500 rpm, 1 min). • Measure the value of Coumarin (Ex400 nm, Em445 nm) and fluorescein (Ex400 nm, Em520 nm), respectively. • 5. Data Analysis Emission Ratio(ER)=Coumarin Emission (445 nm)/Fluorescein Emission (520 nm) % Phosphorylation=1−[ER×C3520nm-C3445nm]/[(C1445nm-C3445nm)+ER×(C3520nm−C1520nm)] Inhibition rate (IR)=1−% Photest Cpd/% PhoC2 • 6. IC50 Value: determined with add-in software for Microsoft Excel, XLfit™ (version 2.0) from ID Business Solutions (Guildford, UK)

The subject of test [4] is KG-1. Briefly: Cellular Proliferation Assay (Cell Counting Kit-8), KG-1. It is filed as cell-based. The conditions noted are these: Homo sapiens; KG-1 cells, 72 hours; read-out: KG1 IC50. The method, then:
(§3) Example 26: Cellular Proliferation Assay
(§4) • 1. Cell Line • KG-1 (ATCC Accession No. CCL-246), • SNU-16 (ATCC Accession No. CRL-5974), • RT-112 (ECACC Accession No. 85061106) • 2. Assay Protocol • FGFR related cancer cell proliferation is measured in 96-well plates using Cell Counting Kit-8 (Dojindo CK04-13). • Seed 30000 cells/well of KG1, 5000 cells/well of SNU16, and 1000 cells/well of RT112 in a volume of 100 μL/well in growth media. • After 24 hours, dilute the test compound to 10, 3.3, 1.1, 0.37, 0.12, 0.04, 0.013, 0.004 μM, keeping the DMSO concentration at 5%. • Add 10 μL of 8-point compound series to the wells of culturing cells. • Incubate at 37° C. and 5% CO2 for 72 hours • Add 10 μL/well of CCkit8 and incubate at 37° C. and 5% CO2 for an hour • Detect the optical density of each well at 450 nm on Labsystems Multiskan K3. • 3. Data Analysis
(§5) [formula] Note: • ODcompound well represents the optical density of cells treated with compound. • ODcell well represents the optical density of cells without compounds treatment.(only 0.5% DMSO) • ODcontrol well represents the optical density of culture media background • IC50: determined with add-in software for Microsoft Excel, XLfit™ (version 2.0) from ID Business Solutions (Guildford, UK).

Test [5] deals with SNU-16. Description: Cellular Proliferation Assay (Cell Counting Kit-8), SNU-16. The class given is cell-based. Conditions: Homo sapiens; SNU-16 cells, 72 hours. On the procedure:
as §3, §4, §5
For orientation: Tetrazolium assays rely on reduction of a dye to a coloured formazan, in cell work by metabolically active cells.

Test [6] deals with RT-112. Briefly: Cellular Proliferation Assay (Cell Counting Kit-8), RT-112. The class given is cell-based. Conditions: Homo sapiens; RT-112 cells, 72 hours. On the procedure: as §3, §4, §5

Recombinant human FGFR1, sequence (P11362 22-822): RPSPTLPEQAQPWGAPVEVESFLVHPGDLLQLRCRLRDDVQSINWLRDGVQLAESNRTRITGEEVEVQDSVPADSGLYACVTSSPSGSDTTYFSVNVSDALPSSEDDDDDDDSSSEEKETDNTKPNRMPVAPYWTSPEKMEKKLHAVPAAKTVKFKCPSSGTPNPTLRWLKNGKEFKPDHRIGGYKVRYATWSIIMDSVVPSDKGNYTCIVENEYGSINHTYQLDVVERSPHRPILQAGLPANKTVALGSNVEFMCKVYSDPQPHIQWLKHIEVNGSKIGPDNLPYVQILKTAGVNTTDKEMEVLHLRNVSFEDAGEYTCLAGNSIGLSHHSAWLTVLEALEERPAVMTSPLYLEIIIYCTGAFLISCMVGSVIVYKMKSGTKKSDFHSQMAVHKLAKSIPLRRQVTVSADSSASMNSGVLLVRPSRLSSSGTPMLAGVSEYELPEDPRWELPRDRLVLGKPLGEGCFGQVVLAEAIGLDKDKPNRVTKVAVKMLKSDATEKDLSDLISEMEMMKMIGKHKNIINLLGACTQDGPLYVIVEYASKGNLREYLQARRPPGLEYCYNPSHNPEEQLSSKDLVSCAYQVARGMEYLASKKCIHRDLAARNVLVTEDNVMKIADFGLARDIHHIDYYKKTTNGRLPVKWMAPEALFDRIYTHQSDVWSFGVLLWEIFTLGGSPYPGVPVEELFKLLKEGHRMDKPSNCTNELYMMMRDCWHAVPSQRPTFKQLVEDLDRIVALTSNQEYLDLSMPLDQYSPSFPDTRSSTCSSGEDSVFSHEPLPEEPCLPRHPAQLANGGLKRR
Recombinant human FGFR2, sequence (P21802 22-821): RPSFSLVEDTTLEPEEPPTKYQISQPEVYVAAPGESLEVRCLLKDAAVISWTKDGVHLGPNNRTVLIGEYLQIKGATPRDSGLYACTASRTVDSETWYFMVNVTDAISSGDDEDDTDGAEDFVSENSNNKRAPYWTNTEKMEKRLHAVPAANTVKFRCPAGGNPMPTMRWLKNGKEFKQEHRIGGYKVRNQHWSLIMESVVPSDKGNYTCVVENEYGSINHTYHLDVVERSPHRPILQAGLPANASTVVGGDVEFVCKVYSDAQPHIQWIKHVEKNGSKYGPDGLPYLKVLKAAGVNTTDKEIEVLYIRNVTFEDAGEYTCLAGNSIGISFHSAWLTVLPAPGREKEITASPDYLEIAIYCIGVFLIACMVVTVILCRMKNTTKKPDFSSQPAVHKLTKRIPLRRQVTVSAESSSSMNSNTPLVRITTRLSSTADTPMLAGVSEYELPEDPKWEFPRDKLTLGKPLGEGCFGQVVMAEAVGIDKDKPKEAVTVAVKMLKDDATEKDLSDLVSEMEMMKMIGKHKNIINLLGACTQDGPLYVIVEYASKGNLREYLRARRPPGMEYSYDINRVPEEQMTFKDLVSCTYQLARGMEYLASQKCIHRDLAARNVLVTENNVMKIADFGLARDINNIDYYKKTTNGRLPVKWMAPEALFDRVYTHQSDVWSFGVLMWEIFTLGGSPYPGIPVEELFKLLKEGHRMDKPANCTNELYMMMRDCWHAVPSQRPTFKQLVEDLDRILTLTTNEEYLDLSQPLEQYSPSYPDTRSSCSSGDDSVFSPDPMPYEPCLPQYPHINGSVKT
FGFR3 kinase, sequence (P22607 23-806): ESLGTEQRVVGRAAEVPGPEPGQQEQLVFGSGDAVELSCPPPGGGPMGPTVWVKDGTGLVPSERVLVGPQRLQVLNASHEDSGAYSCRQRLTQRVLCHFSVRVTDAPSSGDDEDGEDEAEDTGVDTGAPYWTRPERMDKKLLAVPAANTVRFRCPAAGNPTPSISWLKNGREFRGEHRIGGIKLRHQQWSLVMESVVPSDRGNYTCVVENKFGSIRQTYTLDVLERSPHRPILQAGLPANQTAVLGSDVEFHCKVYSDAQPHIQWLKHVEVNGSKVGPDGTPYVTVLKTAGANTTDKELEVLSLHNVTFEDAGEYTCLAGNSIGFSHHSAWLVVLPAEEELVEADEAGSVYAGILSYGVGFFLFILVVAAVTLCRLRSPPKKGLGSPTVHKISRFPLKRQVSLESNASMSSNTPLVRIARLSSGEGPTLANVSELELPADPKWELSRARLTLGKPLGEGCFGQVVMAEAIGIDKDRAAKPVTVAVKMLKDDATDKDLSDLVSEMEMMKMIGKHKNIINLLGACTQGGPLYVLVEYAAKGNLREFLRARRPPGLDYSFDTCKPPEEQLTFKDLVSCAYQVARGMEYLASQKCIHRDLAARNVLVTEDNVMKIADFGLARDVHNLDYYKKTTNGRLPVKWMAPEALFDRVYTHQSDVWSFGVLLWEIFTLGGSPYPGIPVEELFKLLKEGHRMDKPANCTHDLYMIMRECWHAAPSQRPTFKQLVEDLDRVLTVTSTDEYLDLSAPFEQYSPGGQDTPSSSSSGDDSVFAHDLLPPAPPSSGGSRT

Consider `CNC(=O)c1cc(CCc2cnc(Nc3ccc(O)cc3)nc2)c(Cl)c(OC)c1` [Compound 81], for which the IC50 in test [1] was 17 nM; in test [2], 13 nM; in test [3], 26 nM; in test [4] it was 26 nM; in test [5], 59 nM; in test [6], 133 nM.

On to `CNC(=O)c1cc(CCc2cnc(Nc3cnn(C[C@H](C)O)c3)nc2)c(Cl)c(OC)c1` [Compound 88], for which the 50% inhibitory concentration (IC50) in test [1] stood at 12 nM; in test [2] it was 5 nM; in test [3], 3 nM; in test [4], 30 nM; in test [5] it was 24 nM; in test [6] it was 50 nM.

On to `CNC(=O)c1cc(CCc2cnc(Nc3ccc(NC[C@@H](C)N)cc3)nc2)c(Cl)c(OC)c1` [Compound 92], for which the IC50 in test [1] worked out at 8 nM; in test [2], 8 nM; in test [3], 10 nM; in test [4], 90 nM; in test [5], 32 nM; in test [6], 87 nM.

For `CNC(=O)c1cc(CCc2cnc(Nc3ccc(C(C)(C)C#N)nc3)nc2)c(F)c(OC)c1` [Compound 142], the IC50 in test [1] is 31 nM; in test [2], 12 nM; in test [3], 49 nM; in test [4], 64 nM; in test [5], 43 nM; in test [6] it was 127 nM.

On to `CNC(=O)c1cc(CCc2cnc(Nc3ccc(N4C[C@@H](C)N[C@@H](C)C4)c(OC)c3)nc2)c(F)c(OC)c1` [Compound 156], for which the IC50 was 14 nM in test [1]; 6 nM in test [2]; 6 nM in test [3]; 218 nM in test [4]; 9 nM in test [5]; 13 nM in test [6].

As for `CNC(=O)c1cc(CCc2cnc(Nc3ccc(N4C[C@@H](C)N(C)[C@@H](C)C4)nc3)nc2)c(Cl)c(OC)c1` [Compound 158], the IC50 amounted to 14 nM in test [1]; 7 nM in test [2]; 6 nM in test [3]; 16 nM in test [4]; 7 nM in test [5]; 29 nM in test [6].

For `CCN1[C@H](C)CN(c2ccc(Nc3ncc(CCc4cc(C(=O)NC)cc(OC)c4Cl)cn3)cn2)C[C@@H]1C` [Compound 159], the IC50 amounted to 23 nM in test [1]; 11 nM in test [2]; 10 nM in test [3]; 26 nM in test [4]; 6 nM in test [5]; 21 nM in test [6].

Turning to `CNC(=O)c1cc(CCc2cnc(Nc3ccc(N4C[C@@H](C)N(C)[C@@H](C)C4)cc3)nc2)c(F)c(OC)c1` [Compound 171], the IC50 amounted to 12 nM in test [1]; 8 nM in test [2]; 11 nM in test [3]; 8 nM in test [4]; 16 nM in test [5]; 43 nM in test [6].

Consider `CNC(=O)c1cc(CCc2cnc(Nc3ccc(N4CCN(C)CC4)c(OC)c3)nc2)c(F)c(OC)c1` [Compound 172], for which the IC50 in test [1] was 7 nM; in test [2] it was 6 nM; in test [3] it was 6 nM; in test [4], 13 nM; in test [5] it was 4 nM; in test [6], 12 nM.

Regarding `CNC(=O)c1cc(CCc2cnc(Nc3ccc(N4C[C@@H](C)N(C)[C@@H](C)C4)cc3)nc2)c(Cl)c(OC)c1` [Compound 175], the IC50 in test [1] amounted to 12 nM; in test [2] it was 8 nM; in test [3], 6 nM; in test [4], 11 nM; in test [5], 12 nM; in test [6] it was 30 nM.

As to `CNC(=O)c1cc(CCc2cnc(Nc3ccc(N4CCN(C)CC4)c(OC)c3)nc2)c(Cl)c(OC)c1` [Compound 177], the IC50 amounted to 6 nM in test [1]; 5 nM in test [2]; 6 nM in test [3]; 11 nM in test [4]; 2 nM in test [5]; 11 nM in test [6].

Turning to `C#Cc1cccc(Nc2ncc(OCc3cc(C(=O)NC)cc(OC)c3F)cn2)c1` [Compound 210], the IC50 in test [1] amounted to 24 nM; in test [2] it was 13 nM; in test [3], 177 nM; in test [4], 166 nM; in test [5], 115 nM; in test [6] it was 305 nM.

Values taken from patent US9701680B2, “Pyrimidine and pyridine compounds and their usage” (HUTCHISON MEDIPHARMA LIMITED, priority 2013, dated 2017).
